Laboratory results taken from paper PMC11062903, “Discovery of potent inhibitors of α-synuclein aggregation using structure-based iterative learning” (Nature Chemical Biology, 2024).
Entries after “also recorded” stand apart in the source; their conditions may differ. Where two headings read alike, the source gives them in different places.

Columns and labels:
[1] = biological target: T1, αS aggregation (surface-catalyzed secondary nucleation) (Homo sapiens, UniProt P37840); assay: light seeded αS aggregation chemical kinetics assay (ThT), secondary nucleation; type: biochemical
T1 construct: made in house; host or cells: E. coli BL21 (DE3)
Procedure: Secondary nucleation is enabled by adding a small amount of preformed fibrils to a monomeric mixture. Aggregation was tracked using the amyloid binding dye, thioflavin T (ThT).
αS was injected into a Superdex 75 10/300 GL column (GE Healthcare) at a flow rate of 0.5 ml min^−1 and eluted in 20 mM sodium phosphate buffer (pH 4.8) supplemented with 1 mM EDTA. The obtained monomer was diluted in buffer to a desired concentration and supplemented with 50 µM ThT and preformed αS fibril seeds. The molecules (or DMSO alone) were then added at the desired concentration to a final DMSO concentration of 1% (v/v). […] The assay was then initiated by placing the microplate at 37 °C under quiescent conditions in a plate reader (FLUOstar Omega, BMG Labtech). The ThT fluorescence was measured through the bottom of the plate with a 440 nm excitation filter and a 480 nm emission filter.
In the presence of low concentrations of seeds (approximately nanomolar), the fibril mass fraction, M(t), over time was described using a generalized logistic function to the normalized aggregation data[9],[70] M(t)/mtot=1−1/1+a/ce^κt^c where mtot denotes the total concentration of αS monomers. The parameters a and c are defined as a=λ^2/2κ^2 c=2/n2(n2+1). […]

[2] = biological target: T1, αS aggregation (surface-catalyzed secondary nucleation); parameters: method as in PMID 36374974; details: cited from earlier work
[3] = biological target: T2, Aβ42 secondary nucleation (Homo sapiens, UniProt P05067); assay: seeded Aβ42 aggregation kinetics (ThT); type: biochemical; details: 2 μM Aβ42, 40 nM seed, pH 8
T2 construct: The recombinant Aβ42 peptide ([…] […] […] […] IA), here called Aβ42; made in house; host or cells: Escherichia coli BL21 Gold (DE3)
T2 sequence (P05067 671-713): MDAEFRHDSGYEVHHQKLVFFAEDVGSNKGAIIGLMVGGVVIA
Procedure: (§1) Solutions of monomeric Aβ42 were prepared by dissolving the lyophilized Aβ42 peptide in 6 M guanidinium hydrocholoride (GuHCl). Monomeric forms were purified from potential oligomeric species and salt using a Superdex 75 10/300 GL column (GE Healthcare) at a flow rate of 0.5 ml min^−1, and were eluted in 20 mM sodium phosphate buffer, pH 8 supplemented with 200 µM EDTA and 0.02% NaN3. The center of the peak was collected and the peptide concentration was determined from the absorbance of the integrated peak area using ε280 = 1,490 l mol^−1 cm^−1. The obtained monomer was diluted with buffer to the desired concentration and supplemented with 20 μM ThT from a 2 mM stock. Each sample was then pipetted into multiple wells of a 96-well half-area, low-binding, clear-bottom and polyethylene glycol-coated plate (Corning 3881), 80 µl per well, in the absence and the presence of different molar-equivalents of small molecules (1% DMSO). Assays were initiated by placing the 96-well plate at 37 °C under quiescent conditions in a plate reader (Fluostar Omega, Fluostar Optima or Fluostar Galaxy, BMGLabtech). The ThT fluorescence was measured through the bottom of the plate using a 440 nm excitation filter and a 480 nm emission filter. Fibrils were extracted directly from wells and used on the day for SPR experiments.

αS fibrils = biological target: T3, αS fibrils (Homo sapiens, UniProt P37840); assay: SPR binding to immobilized αS fibrils; details: 1:1 kinetic binding model; for kd / kon: error s.e.m.; for kon: read-out: ka
T3 construct: made in house; host or cells: E. coli BL21 (DE3)
Procedure: All work was carried out using Biacore T200 at 25 °C. CM5 chips were activated by flowing 0.01 M N-hydroxysuccinimide, 0.4 M […] at a flow rate of 10 µl min^−1 for 7 min over two lanes. Preformed αS or Aβ42 fibrils (derived from the endpoints of low seeded aggregation reactions) at a concentration of 1 µM in sodium acetate (10 mM, pH 4.0) were injected onto a single lane in 60 s bursts at 5 µl min^−1 until a response of 2,000 units was reached. […] Different small molecule concentrations were then flowed over both lanes in a pyramidal arrangement in duplicate with blank subtraction (association time 3 min, dissociation time 10 min). The running buffer was sodium phosphate (20 mM, 1 mM EDTA, variable pH) with 1% DMSO. Fitting was carried out on Biacore T200 Evaluation Software, version 3.2, using a 1:1 binding model with the refractive index set to a constant value of 0 response units.

Aβ42 fibrils = biological target: T4, Aβ42 fibrils (Homo sapiens, UniProt P05067); assay: SPR binding to immobilized Aβ42 fibrils; details: pH 8
T4 construct: The recombinant Aβ42 peptide ([…] […] […] […] IA), here called Aβ42; made in house; host or cells: Escherichia coli BL21 Gold (DE3)
T4 sequence (P05067 671-713): as above
Procedure: as §1
All work was carried out using Biacore T200 at 25 °C. […]

For O=C1NN(c2ccccc2)C(=O)C1=Cc1coc2ccccc2c1=O [molecule 69], the IC50 ([1]; extrapolated from Hill fit of 1/t1/2, read-out: extrapolated KIC50) is listed as 18200 nM and the “activity in aggregation assays (docking set)” value [2] is listed as “active”.
For Cc1c(OCc2nnn[nH]2)ccc2c1oc(=O)c1ccccc12 [molecule 48], the “activity in aggregation assays (docking set)” value [2] is given as “active”.
With O=C1NN(c2ccc(F)cc2)C(=O)/C1=C/c1ccc(-c2ccc(Cl)c(C(=O)O)c2)o1 [I4.05] the “effect on seeded aggregation of Aβ42” value [3] was “unable to effectively inhibit Aβ42 secondary nucleation; also recorded: no effect”, the Kd (αS fibrils; pH 4.8) was 68 nM and the kd (αS fibrils; pH 4.8) was 1.315 ± 0.003 × 10^−2 s^−1. The kon (αS fibrils; pH 4.8) was 194000 ± 7e+07 M⁻¹ s⁻¹, the Kd (αS fibrils; pH 8) was 13 nM and the kd (αS fibrils; pH 8) was 0.781 ± 0.002 × 10^−2 s^−1. The kon (αS fibrils; pH 8) was 588000 ± 2.4e+08 M⁻¹ s⁻¹, the “binding to Aβ42 fibrils” value (Aβ42 fibrils) was “unable to effectively inhibit Aβ42 secondary nucleation or bind to Aβ42 fibrils; also recorded: nor does it bind effectively to Aβ42 fibrils” and the IC50 ([1]; 1/t1/2 fitted to a Hill slope, 10 µM αS, 25 nM seeds, pH 4.8, 37 °C, read-out: KIC50 (concentration at which t1/2 is increased by 50% with respect to the control)) was 520 nM.
